Experimental data from US4255585A, “Benzoheterocyclic derivatives of phenoxyacetic acid” (Centre European de Recherches Pharmacologique, priority 1975, dated 1981).
Read-outs that look alike come from different tables or passages of the source.

Legend:
[1] = Diuretic activity (diuresis, Na+, K+, uric acid excretion); format: in vivo, Male Swiss C.D. mice; settings: mice; for Uricosuria (coefficient): uric acid by Caraway's method; for Diuresis (coefficient) / K+ (coefficient) / Na+ (coefficient) / Na+/K+: urine sampled 2 and 4 hours
Experimental: The three compounds were administered to Male Swiss C.D. mice of average weight 22 g. The animals were deprived of food and drink for 2 hours prior to treatment.
The animals were grouped two by two in cages where their metabolism is to be monitored. Sampling of the urine 2 and 4 hours after treatment. The experiments were made per lot of six pairs. The products were administered at constant volume.
The following determinations were made:
Na^+ and K^+ ions expressed in milliequivalents (Millival or M. Eq.) excreted in 2 or 4 hours (Eppendorf Flame Photometer);
uric acid excreted expressed in mg/2 or 4 hours determined by Caraway's method (Amer. J. Clin. Pathol. 1955. 25 840).
They are considered in the form of the coefficient: [formula]

[2] = in vivo; settings: for LD50 at 48 h: mouse, in vivo, po, read-out: LD 50 per os
Experimental: The three compounds were administered in the usual way to lots of 10 male mice (Swiss C.D.) of average weight 20 g. Mortality was assessed after 48 hours for toxicity per os.

[3] = male Swiss C.D. mice, per os, mortality after 48 hours

SMILES | Uricosuria (coefficient) ([1]; 100 mg/kg P.O.) | Diuresis (coefficient) ([1]; 100 mg/kg P.O.) | K+ (coefficient) ([1]; 100 mg/kg P.O.) | Na+ (coefficient) ([1]; 100 mg/kg P.O.) | Na+/K+ ([1]; 100 mg/kg P.O.) | MLD per os [2, 3] [mg/kg] | Uricosuria (coefficient) ([1]; 20 mg/kg P.O.) | Diuresis (coefficient) ([1]; 20 mg/kg P.O.) | K+ (coefficient) ([1]; 20 mg/kg P.O.) | Na+ (coefficient) ([1]; 20 mg/kg P.O.) | Na+/K+ ([1]; 20 mg/kg P.O.) | LD50 at 48 h [2, 3] [mg/kg] | LD50 at 48 h [2] [mg/kg]
O=C(O)COc1ccc(C(=O)c2cc3ccccc3s2)c(Cl)c1Cl [Example 2, 4-(2-benzothienyl-keto)-2,3-dichloro-phenoxyacetic acid] | 1.05 | 1.2 | 0.91 | 1.18 | 1.29 | > 1000 |  |  |  |  |  |  | 
C=C(CC)C(=O)c1ccc(OCC(=O)O)c(Cl)c1Cl [ethacrynic acid, reference compound] |  |  |  |  |  |  | 1.27 | 2.4 | 1.48 | 2.76 | 1.87 | 600 | 
O=C(O)COc1ccc(C(=O)c2cc3ccccc3o2)c(Cl)c1Cl [Example 1, 4-(2-benzofuryl-keto)-2,3-dichloro-phenoxyacetic acid] | 1.56 | 1.3 | 1.74 | 1.52 | 0.87 |  |  |  |  |  |  | < 1000 | 
CCc1oc2ccccc2c1C(=O)c1cc(I)c(O)c(I)c1 [benziodarone, reference compound] |  |  |  |  |  |  | 1.44 |  |  |  |  |  | 
NS(=O)(=O)c1cc(C(=O)O)c(NCc2ccco2)cc1Cl [furosemide, reference compound] |  |  |  |  |  |  | 1.34 | 3.0 | 1.51 | 4.28 | 2.83 |  | 
O=C(O)COc1ccc(C(=O)c2sc3ccccc3c2Cl)c(Cl)c1Cl [Example 3, 4-[2-(3-chloro)-benzothienyl-keto]-2,3-dichloro-phenoxy acetic acid] | 1.26 | 1.3 | 1.17 | 1.29 | 1.10 |  |  |  |  |  |  |  | > 1000
